Results taken from publication PMC10746543, “Design principles for cyclin K molecular glue degraders” (Nature Chemical Biology, 2023).
Values joined by “and” are separate entries in the source; they are usually repeats but may differ in a detail not shown here. Equal values may be shown once. Read-outs that look alike come from different tables or passages of the source.

How the values were obtained:
[1] = system: cyclin K–eGFP degradation reporter; test: Cyclin K reporter stability analysis (dual-color cyclin K–eGFP reporter); type: cell-based, human; conditions: source data sheet correlations; read-out: DC50
How it was run: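 First, reporter-bearing HEK293T–Cas9 cells are plated at 1 × 10^6 ml^−1. Next, drug or vehicle is added for 5 h. Finally, geometric-mean eGFP and mCherry signals of round, mCherry-positive cells are measured cytometrically, and their ratio is referenced to the DMSO average.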

CDK12–cyclin K and DDB1 = biological target: T1, CDK12–cyclin K and DDB1 (Homo sapiens, UniProt Q16531+Q9NYV4, K965R); test: TR-FRET ternary complex formation assay (compound titration); type: binding; conditions: for TR-FRET signal at compound concentration: replicate titrations
T1 construct: His6–CDK12 (a.a. 713–1,052); full-length or beta-propeller B domain deletion (ΔBPB: a.a. 396–705 deleted) constructs of His6–DDB1ΔBPB, StrepII–Avi–DDB1, or His6–Spy–DDB1; made in house; host or cells: Trichoplusia ni High Five insect cells (baculovirus)
How it was run: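 Signal was the ratio of 520 nm to 490 nm fluorescence, measured after a 70 μs delay that reduced background.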

HEK293T cells = test: Drug sensitivity assay (CellTiter-Glo viability) with or without MLN4924 pretreatment; type: cell-based, human; conditions: for EC50: Homo sapiens, HEK-293T; for Toxicity rescue: MLN4924-mediated cytotoxicity rescue, 10 µM used where n.d.
How it was run: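 HEK293T–Cas9, 0.15 × 10^6 ml^−1; pretreat DMSO vs 100 nM MLN4924; drugs dispensed after 2 h; 3 d exposure; CellTiter-Glo; viability vs DMSO control.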

[2] = in vitro complex formation, 50 nM CDK12–cyclin K, 100 nM DDB1, text and figures, read-out: TR-FRET EC50
[3] = source data sheet correlations, read-out: TR-FRET EC50
[4] = Supplementary Table 2, HEK293T viability, 72 h, compound alone, read-out: Cellular assays EC50
[5] = compound concentration 0.468 nM
[6] = compound concentration 7.92001 nM
[7] = compound concentration 15.84 nM
[8] = compound concentration 30.96 nM
[9] = compound concentration 62.6401 nM
[10] = compound concentration 125.28 nM
[11] = compound concentration 244.8 nM
[12] = compound concentration 993.601 nM
[13] = compound concentration 2001.6 nM
[14] = sheet MOESM7, read-out: log TR-FRET EC50 (converted)

T1 sequence (Q9NYV4 713-1052 K965R): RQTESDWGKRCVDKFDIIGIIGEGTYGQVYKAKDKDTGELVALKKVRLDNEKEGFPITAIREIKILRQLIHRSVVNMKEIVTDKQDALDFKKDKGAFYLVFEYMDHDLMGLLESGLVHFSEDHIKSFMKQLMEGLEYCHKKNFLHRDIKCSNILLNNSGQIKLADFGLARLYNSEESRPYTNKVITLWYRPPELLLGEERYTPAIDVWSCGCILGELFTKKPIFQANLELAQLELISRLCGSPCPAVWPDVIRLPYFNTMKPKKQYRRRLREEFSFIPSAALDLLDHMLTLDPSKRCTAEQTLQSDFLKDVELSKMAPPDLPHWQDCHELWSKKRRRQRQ
T1 sequence (O75909 1-267 partner): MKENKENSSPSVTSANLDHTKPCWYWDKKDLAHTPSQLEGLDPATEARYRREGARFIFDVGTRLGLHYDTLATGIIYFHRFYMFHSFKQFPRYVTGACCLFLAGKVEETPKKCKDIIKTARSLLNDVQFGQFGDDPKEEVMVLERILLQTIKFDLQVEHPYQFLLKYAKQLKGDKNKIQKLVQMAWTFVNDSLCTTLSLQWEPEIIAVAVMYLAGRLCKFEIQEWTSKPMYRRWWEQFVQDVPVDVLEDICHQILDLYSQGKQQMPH
T1 sequence (Q16531 whole entry): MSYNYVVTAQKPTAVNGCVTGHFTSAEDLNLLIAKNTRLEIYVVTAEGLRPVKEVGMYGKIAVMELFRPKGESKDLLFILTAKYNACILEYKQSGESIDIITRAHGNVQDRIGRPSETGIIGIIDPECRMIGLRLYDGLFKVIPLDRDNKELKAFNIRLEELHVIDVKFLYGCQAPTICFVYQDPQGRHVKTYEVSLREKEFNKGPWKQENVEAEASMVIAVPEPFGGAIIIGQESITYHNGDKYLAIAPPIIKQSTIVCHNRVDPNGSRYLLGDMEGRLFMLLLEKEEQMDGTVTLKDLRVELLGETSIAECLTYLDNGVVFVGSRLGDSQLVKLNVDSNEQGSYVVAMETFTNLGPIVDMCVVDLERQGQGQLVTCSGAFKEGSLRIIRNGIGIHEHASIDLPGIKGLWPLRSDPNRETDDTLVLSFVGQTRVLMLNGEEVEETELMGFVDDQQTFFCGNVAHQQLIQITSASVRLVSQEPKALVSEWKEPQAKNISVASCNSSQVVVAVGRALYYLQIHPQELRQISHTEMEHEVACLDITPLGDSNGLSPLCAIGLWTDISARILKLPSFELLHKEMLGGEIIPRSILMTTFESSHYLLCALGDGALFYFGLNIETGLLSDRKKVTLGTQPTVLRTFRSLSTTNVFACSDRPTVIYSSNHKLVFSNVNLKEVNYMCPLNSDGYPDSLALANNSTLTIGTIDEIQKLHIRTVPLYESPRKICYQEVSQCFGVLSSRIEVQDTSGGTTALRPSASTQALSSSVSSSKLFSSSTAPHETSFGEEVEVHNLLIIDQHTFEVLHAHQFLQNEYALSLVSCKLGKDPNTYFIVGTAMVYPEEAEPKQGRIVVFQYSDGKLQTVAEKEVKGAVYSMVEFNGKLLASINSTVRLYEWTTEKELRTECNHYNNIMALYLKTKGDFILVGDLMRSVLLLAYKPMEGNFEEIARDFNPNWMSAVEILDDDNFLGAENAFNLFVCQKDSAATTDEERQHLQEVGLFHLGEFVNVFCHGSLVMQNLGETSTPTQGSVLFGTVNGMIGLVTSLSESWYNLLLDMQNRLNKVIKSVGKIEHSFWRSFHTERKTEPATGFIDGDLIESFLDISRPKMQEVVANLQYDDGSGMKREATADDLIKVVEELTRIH

Structure (SMILES) | DC50 [1] | EC50 (CDK12–cyclin K and DDB1; [2]) | EC50 (CDK12–cyclin K and DDB1; [3]) | EC50 (HEK293T cells; [4]) | Toxicity rescue (HEK293T cells; Supplementary Table 2) | TR-FRET signal at compound concentration (CDK12–cyclin K and DDB1; [5]) | TR-FRET signal at compound concentration (CDK12–cyclin K and DDB1; compound concentration 2.16 nM) | TR-FRET signal at compound concentration (CDK12–cyclin K and DDB1; compound concentration 3.6 nM) | TR-FRET signal at compound concentration (CDK12–cyclin K and DDB1; [6]) | TR-FRET signal at compound concentration (CDK12–cyclin K and DDB1; [7]) | TR-FRET signal at compound concentration (CDK12–cyclin K and DDB1; [8]) | TR-FRET signal at compound concentration (CDK12–cyclin K and DDB1; [9]) | TR-FRET signal at compound concentration (CDK12–cyclin K and DDB1; [10]) | TR-FRET signal at compound concentration (CDK12–cyclin K and DDB1; [11]) | TR-FRET signal at compound concentration (CDK12–cyclin K and DDB1; [12]) | TR-FRET signal at compound concentration (CDK12–cyclin K and DDB1; [13]) | EC50 (CDK12–cyclin K and DDB1; [14]) | further results
Cc1nn(C)c(CNc2nc(NCc3ccc(-c4ccccn4)cc3)c3ncn(C(C)C)c3n2)c1S(N)(=O)=O [DS59] | 566 nM | 101 ± 5 nM | 101 nM | 1420 nM | 230% |  |  |  |  |  |  |  |  |  |  |  |  | TR-FRET signal at compound concentration 4.68 nM (CDK12–cyclin K and DDB1; compound concentration 4.68 nM, raw titration data): 0.1939 and 0.1953; TR-FRET signal at compound concentration 21.6 nM (CDK12–cyclin K and DDB1; compound concentration 21.6 nM, raw titration data): 0.4174 and 0.4335; TR-FRET signal at compound concentration 36 nM (CDK12–cyclin K and DDB1; compound concentration 36 nM, raw titration data): 0.8682 and 0.9198; TR-FRET signal at compound concentration 79.2001 nM (CDK12–cyclin K and DDB1; compound concentration 79.2001 nM, raw titration data): 1.565 and 1.549; TR-FRET signal at compound concentration 158.4 nM (CDK12–cyclin K and DDB1; compound concentration 158.4 nM, raw titration data): 2.139 and 2.165; TR-FRET signal at compound concentration 309.6 nM (CDK12–cyclin K and DDB1; compound concentration 309.6 nM, raw titration data): 2.574 and 2.56; TR-FRET signal at compound concentration 626.401 nM (CDK12–cyclin K and DDB1; compound concentration 626.401 nM, raw titration data): 2.883 and 2.886; TR-FRET signal at compound concentration 1252.8 nM (CDK12–cyclin K and DDB1; compound concentration 1252.8 nM, raw titration data): 3.135 and 3.111; TR-FRET signal at compound concentration 2448 nM (CDK12–cyclin K and DDB1; compound concentration 2448 nM, raw titration data): 3.2283 and 3.26; TR-FRET signal at compound concentration 9936.01 nM (CDK12–cyclin K and DDB1; compound concentration 9936.01 nM, raw titration data): 3.148 and 3.114; TR-FRET signal at compound concentration 20016 nM (CDK12–cyclin K and DDB1; compound concentration 20016 nM, raw titration data): 2.946 and 3.018
CC[C@H](CO)Nc1nc(NCc2ccc(OCCO)cc2)c2ncn(C(C)C)c2n1 [DS61] | 917 nM | 169 ± 7 nM | 168 nM | 283 nM | 278% |  |  |  |  |  |  |  |  |  |  |  |  | TR-FRET signal (CDK12–cyclin K and DDB1; compound concentration 4.68 nM): 0.1556 and 0.1596; TR-FRET signal (CDK12–cyclin K and DDB1; compound concentration 21.6 nM): 0.2553 and 0.252; TR-FRET signal (CDK12–cyclin K and DDB1; compound concentration 36 nM): 0.4296 and 0.427; TR-FRET signal (CDK12–cyclin K and DDB1; compound concentration 79.2001 nM): 0.6728 and 0.6901; TR-FRET signal (CDK12–cyclin K and DDB1; compound concentration 158.4 nM): 0.9753 and 0.9579; TR-FRET signal (CDK12–cyclin K and DDB1; compound concentration 309.6 nM): 1.242 and 1.248; TR-FRET signal (CDK12–cyclin K and DDB1; compound concentration 626.401 nM): 1.483 and 1.517; TR-FRET signal (CDK12–cyclin K and DDB1; compound concentration 1252.8 nM): 1.637 and 1.718; TR-FRET signal (CDK12–cyclin K and DDB1; compound concentration 2448 nM): 1.781 and 1.804; TR-FRET signal (CDK12–cyclin K and DDB1; compound concentration 9936.01 nM): 1.87 and 1.831; TR-FRET signal (CDK12–cyclin K and DDB1; compound concentration 20016 nM): 1.812 and 1.801; EC50 (HEK293T cells; Supplementary Fig. 5, HEK293T, CellTiter Glo, 72h, read-out: Viability EC50, no MLN4924): 281 nM
CC[C@H](CO)Nc1nc(NCCCc2ccc(Cl)c(Cl)c2)c2ncn(C(C)C)c2n1 [DS65] | 103 nM | 21 ± 1 nM | 20.8 nM | 528 nM | 214% | 0.285 and 0.2127 and 0.2055 | 0.3417 and 0.2944 and 0.2907 | 0.5004 and 0.4783 and 0.4869 | 0.7813 and 0.9382 and 0.8877 | 1.382 and 1.799 and 1.705 | 2.38 and 2.795 and 2.787 | 3.286 and 3.376 and 3.32 | 3.728 and 3.691 and 3.7229 | 3.806 and 3.848 and 3.815 | 3.884 and 3.899 and 3.865 | 3.902 and 3.823 and 3.872 | 20.8 nM | 
CC[C@H](CO)Nc1nc(NCCCc2ccc(C)c(C)c2)c2ncn(C(C)C)c2n1 [DS66] | 88 nM | 18 ± 1 nM | 17.7 nM | > 10000 nM | 0% | 0.2923 and 0.3076 and 0.198 and 0.2218 | 0.3989 and 0.4255 and 0.2838 and 0.3021 | 0.6137 and 0.6924 and 0.4704 and 0.4752 | 1.224 and 1.234 and 0.9118 and 0.9562 | 2 and 2.2 and 1.736 and 1.809 | 3.161 and 3.3799 and 3.037 and 2.9897 | 3.7362 and 4.009 and 3.696 and 3.655 | 3.905 and 4.159 and 3.906 and 3.9109 | 4.008 and 4.194 and 3.9625 and 4.012 | 4.134 and 4.267 and 4.125 and 4.115 | 4.074 and 4.31 and 4.121 and 4.142 | 17.7 nM | 
